For 7 compounds, IC50 results are on record in patent US12668594B2, “TYK2 inhibitors and uses thereof” (Sudo Biosciences Limited, priority 2020, dated 2026).

Molecules are shown by their SMILES.

The target of one assay is T1, JAK2-JH1 (Homo sapiens, UniProt O60674).
T1 construct: recombinant purified His or GST-tagged catalytic domain for each enzyme; made in house
Put plainly: HTRF-based selectivity assay, JAK2 catalytic domain. It is filed as biochemical. Conditions: kinase domain (JH1), ATP 14.7 μM. The method, then:
(§1) The ability of compounds to inhibit the activity of JAK1, JAK2, JAK3 and TYK2 is measured using a recombinant purified His or GST-tagged catalytic domain for each enzyme (JAK1, JAK2 and TYK2 are generated in-house; JAK3 was purchased from Carna biosciences, Cat #08-046) in an HTRF format biochemical assay. The reactions employs a commercial peptide substrate from Cisbio (Cat #62TK0PEC). The basic assay protocol is as follows: first, 2.5 µL of diluted compounds (4×) in DMSO are dispensed into a 384-well Optiplate. Next, 2.5 μL of enzyme (final concentrations for enzymes are: TYK2-700 ng/mL, JAK1-80.6 ng/mL, JAK2-2.1 ng/mL and JAK3-171.8 ng/mL) is added and incubated at RT for 5-20 min. Finally, 5 μl of mixture of 2×ATP [Final concentration 20 μM for TYK2, 21.43 μM for JAK1, 14.7 μM for JAK2 and 2.12 μM for JAK3]+2× Substrate [Final concentration 217 nM for TYK2, 454.7 nM for JAK1, 200 nM for JAK2 and 257.4 nM for JAK3] is added to 384 well Optiplate. Composition of Kinase assay buffer used in the assay is as follows: HEPES 50 mM, EGTA 1 mM, MgCl2 10 mM, DTT2 mM, Tween-20 0.010 and water. Then the plates are shaken and then incubated at 26.5° C. for 60 min. At the end of the incubation, 10 μL of mixture of 2× detection mix [(EU3+Cryptate (1×)+Streptavidin-XL665 (final concentration: 62.5 nM) (HTRF KinEASE-TK kit Cat #62TK0PEC)] is added to the assay plate, shaken and incubated at 26.5° C. for 60 min. Plates are then read on a Perkin Elmer Envision for HTRF signal (665 nm reading/615 nm reading). After normalization to untreated controls, the percent inhibition of the HTRF signal at each compound concentration is calculated. The plot of percent inhibition versus the log of compound concentration is fit with a 4-parameter dose response equation to calculate IC50 values.

A further assay deals with T2, JAK1-JH1 (Homo sapiens, UniProt P23458).
T2 construct: recombinant purified His or GST-tagged catalytic domain for each enzyme; made in house
T2 sequence (P23458 875-1153 limits assumed): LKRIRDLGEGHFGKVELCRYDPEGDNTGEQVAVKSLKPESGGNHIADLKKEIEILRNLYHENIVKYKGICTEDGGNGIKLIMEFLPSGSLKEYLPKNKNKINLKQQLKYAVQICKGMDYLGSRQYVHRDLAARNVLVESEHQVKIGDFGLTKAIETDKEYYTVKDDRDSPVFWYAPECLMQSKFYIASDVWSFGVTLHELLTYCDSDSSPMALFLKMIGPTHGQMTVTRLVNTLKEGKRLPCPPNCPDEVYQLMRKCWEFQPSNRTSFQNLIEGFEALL
Put plainly: HTRF-based selectivity assay, JAK1 catalytic domain. Conditions: kinase domain (JH1), ATP 21.43 μM. In kind it is biochemical. The method, then: as §1

The next assay has as its system IFN-γ. Put plainly: Selectivity assay (SEAP) IFN-γ reporter cells. In kind it is cell-based. The conditions noted are these: Homo sapiens, IFN-γ reporter cells on HEK293 background, read-out: Selectivity assays (SEAP) nM or E-Max % IFN-γ.
For assay [1], the target named is T3, TYK2 (Homo sapiens, UniProt P29597). Put plainly: HEK-Blue IFNα/β reporter assay (SEAP) for TYK2 pseudokinase inhibition. It is filed as cell-based. Conditions: HEK-Blue IFNα/β cells, 1 ng/mL human recombinant IFNα. In a few lines:
(§2)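 HEK-Blue cells carrying cytokine receptor and STAT3 or STAT1 SEAP reporter, pretreated 60 min with compound, then stimulated with 10 ng/mL IL-23 (22–24 h) or 1 ng/mL IFNα (16–18 h). SEAP read with QUANTI-Blue; IC50 by non-linear regression versus no-inhibitor and unstimulated controls.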

Another assay relates to IL-2. Put plainly: Selectivity assay (SEAP) IL-2 reporter cells. In kind it is cell-based. The conditions noted are these: Homo sapiens, IL-2 reporter cells on HEK293 background, read-out: Selectivity assays (SEAP) nM or E-Max % IL-2.
In assay [2] the target is T3, TYK2. Put plainly: HEK-Blue IL-23 reporter assay (SEAP) for TYK2 pseudokinase inhibition. Conditions: HEK-Blue IL-23 cells, 10 ng/mL human recombinant IL-23, SEAP reporter; read-out: IL23 IC50. In kind it is cell-based. Further details: HEK-Blue™ IL-23 and IFNα/β cells with a stably-integrated cytokine receptor and STAT3 or STAT1; host or cells: HEK-Blue IL-23 / HEK-Blue IFNα/β cells (HEK293 background). In a few lines: as §2

A further assay concerns the target T4, JAK3-JH1 (Homo sapiens, UniProt P52333).
T4 construct: recombinant purified His or GST-tagged catalytic domain for each enzyme; purchased Carna biosciences 08-046
Put plainly: HTRF-based selectivity assay, JAK3 catalytic domain. In kind it is biochemical. Conditions: kinase domain (JH1), ATP 2.12 μM. As to the method:
as §1

Another assay concerns the target T5, TYK2-JH1 (Homo sapiens, UniProt P29597).
T5 construct: recombinant purified His or GST-tagged catalytic domain for each enzyme; made in house
T5 sequence (P29597 897-1176 limits assumed): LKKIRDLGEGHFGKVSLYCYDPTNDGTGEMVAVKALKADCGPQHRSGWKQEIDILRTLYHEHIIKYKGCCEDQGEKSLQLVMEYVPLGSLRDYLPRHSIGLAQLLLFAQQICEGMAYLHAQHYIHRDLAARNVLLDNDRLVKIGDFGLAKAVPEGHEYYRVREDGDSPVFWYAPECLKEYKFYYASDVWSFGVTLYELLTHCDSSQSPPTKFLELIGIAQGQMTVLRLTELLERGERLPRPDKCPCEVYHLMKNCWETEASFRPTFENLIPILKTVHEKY
Put plainly: HTRF-based selectivity assay, TYK2 catalytic domain. It is filed as biochemical. Conditions: kinase domain (JH1), ATP 20 μM. As to the method: as §1

T3 sequence (P29597 whole entry): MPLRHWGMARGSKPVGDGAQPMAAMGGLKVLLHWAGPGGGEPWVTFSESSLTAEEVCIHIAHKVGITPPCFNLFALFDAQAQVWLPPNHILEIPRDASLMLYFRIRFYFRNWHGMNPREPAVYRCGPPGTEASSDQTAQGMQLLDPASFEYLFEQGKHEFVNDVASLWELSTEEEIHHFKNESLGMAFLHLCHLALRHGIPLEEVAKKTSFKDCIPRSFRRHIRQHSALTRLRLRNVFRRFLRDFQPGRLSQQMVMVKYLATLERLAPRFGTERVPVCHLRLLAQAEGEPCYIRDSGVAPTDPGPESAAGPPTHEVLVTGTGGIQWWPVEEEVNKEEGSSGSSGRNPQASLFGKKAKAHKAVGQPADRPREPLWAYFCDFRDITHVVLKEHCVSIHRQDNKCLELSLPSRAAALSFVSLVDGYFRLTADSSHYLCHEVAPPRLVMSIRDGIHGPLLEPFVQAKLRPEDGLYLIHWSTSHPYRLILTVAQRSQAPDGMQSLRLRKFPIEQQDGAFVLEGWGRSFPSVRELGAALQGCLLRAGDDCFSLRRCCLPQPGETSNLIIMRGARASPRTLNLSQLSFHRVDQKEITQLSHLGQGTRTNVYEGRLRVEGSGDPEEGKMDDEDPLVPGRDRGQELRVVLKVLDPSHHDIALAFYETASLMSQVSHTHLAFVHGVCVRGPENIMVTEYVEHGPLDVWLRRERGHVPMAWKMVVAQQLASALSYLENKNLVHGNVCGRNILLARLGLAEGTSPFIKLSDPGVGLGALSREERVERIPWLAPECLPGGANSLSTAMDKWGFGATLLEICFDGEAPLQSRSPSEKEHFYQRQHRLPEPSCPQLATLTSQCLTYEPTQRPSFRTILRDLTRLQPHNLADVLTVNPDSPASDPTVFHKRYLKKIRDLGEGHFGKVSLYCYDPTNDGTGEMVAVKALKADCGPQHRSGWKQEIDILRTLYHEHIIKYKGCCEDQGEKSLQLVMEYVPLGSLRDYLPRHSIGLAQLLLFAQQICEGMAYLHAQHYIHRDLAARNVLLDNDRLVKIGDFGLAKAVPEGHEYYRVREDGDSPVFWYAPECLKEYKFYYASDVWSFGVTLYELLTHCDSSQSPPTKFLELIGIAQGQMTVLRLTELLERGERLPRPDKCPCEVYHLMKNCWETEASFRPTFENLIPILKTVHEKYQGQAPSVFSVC
T1 sequence (O60674 849-1124 limits assumed): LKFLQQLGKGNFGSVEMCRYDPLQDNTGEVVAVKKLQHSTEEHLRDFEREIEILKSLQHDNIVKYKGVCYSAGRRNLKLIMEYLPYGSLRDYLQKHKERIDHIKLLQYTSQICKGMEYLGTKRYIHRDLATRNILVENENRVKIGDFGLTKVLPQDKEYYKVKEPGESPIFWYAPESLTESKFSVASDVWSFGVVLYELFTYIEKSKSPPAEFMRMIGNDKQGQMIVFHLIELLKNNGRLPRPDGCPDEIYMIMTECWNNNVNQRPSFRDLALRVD
T4 sequence (P52333 822-1111 limits assumed): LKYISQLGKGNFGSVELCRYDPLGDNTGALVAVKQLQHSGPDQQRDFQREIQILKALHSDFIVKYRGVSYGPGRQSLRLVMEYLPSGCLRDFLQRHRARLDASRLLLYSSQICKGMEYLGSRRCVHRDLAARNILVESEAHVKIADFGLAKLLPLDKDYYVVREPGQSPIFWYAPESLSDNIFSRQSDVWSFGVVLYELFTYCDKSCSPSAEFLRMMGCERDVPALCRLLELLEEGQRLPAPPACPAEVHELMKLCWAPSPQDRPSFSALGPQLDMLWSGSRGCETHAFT

Consider `COc1cccc(-n2[nH]c(=O)c3cnc(Nc4cc(C)nc(C)n4)cc32)c1F` [Compound I-37, 6-((2,6-dimethylpyrimidin-4-yl)amino)-1-(2-fluoro-3-methoxyphenyl)-1,2-dihydro-3H-pyrazolo[4,3-c]pyridin-3-one], for which the IC50 on JAK2-JH1 is > 90 µM; on JAK1-JH1, > 90 µM; with IFN-γ it was > 90000 nM; on TYK2 [1] it was < 10 µM; in the assay on IL-2, > 90000 nM; at TYK2 [2], < 10 µM. For the same compound, the IC50 at JAK3-JH1 and against TYK2-JH1 was > 90 µM in each case.
For the compound `Cc1cc(Nc2cc3c(cn2)c(=O)[nH]n3-c2cccc(F)c2)nc(C)n1` [Compound I-59, 6-((2,6-dimethylpyrimidin-4-yl)amino)-1-(3-fluorophenyl)-1,2-dihydro-3H-pyrazolo[4,3-c]pyridin-3-one], the IC50 is > 90 µM against JAK2-JH1; > 90 µM against JAK1-JH1; > 90000 nM in the assay on IFN-γ; < 10 µM at TYK2 [1]; > 90000 nM with IL-2; < 10 µM at TYK2 [2]. The IC50 against JAK3-JH1 and at TYK2-JH1 was > 90 µM throughout.
With `N#Cc1ccc(-n2[nH]c(=O)c3cnc(Nc4ccc(F)cn4)cc32)cc1Cl` [Compound I-88, 2-chloro-4-(6-((5-fluoropyridin-2-yl)amino)-3-oxo-2,3-dihydro-1H-pyrazolo[4,3-c]pyridin-1-yl)benzonitrile], the IC50 is > 90 µM on JAK2-JH1; > 90 µM at JAK1-JH1; > 90000 nM in the assay with IFN-γ; < 10 µM on TYK2 [1]; > 90000 nM in the assay on IL-2; < 10 µM on TYK2 [2]. Moreover, the IC50 against JAK3-JH1 and at TYK2-JH1 was > 90 µM in each case.
Regarding `Cc1cc(Nc2cc3c(cn2)c(=O)[nH]n3-c2ccc(OC(F)(F)F)cc2)nc(C)n1` [Compound I-69, 6-((2,6-dimethylpyrimidin-4-yl)amino)-1-(4-(trifluoromethoxy)phenyl)-1,2-dihydro-3H-pyrazolo[4,3-c]pyridin-3-one], the IC50 at JAK2-JH1 was > 90 µM; against JAK1-JH1, > 90 µM; with IFN-γ it was > 90000 nM; on TYK2 [1], < 10 µM; in the assay on IL-2, > 90000 nM; at TYK2 [2] it was < 10 µM. Further, the IC50 on JAK3-JH1 and on TYK2-JH1 was > 90 µM in each case.
As to `O=c1[nH]n(-c2ccc(OC(F)(F)F)c(F)c2)c2cc(Nc3ccc(F)cn3)ncc12` [Compound I-95, 1-(3-fluoro-4-(trifluoromethoxy)phenyl)-6-((5-fluoropyridin-2-yl)amino)-1,2-dihydro-3H-pyrazolo[4,3-c]pyridin-3-one], the IC50 was > 90 µM against JAK2-JH1; > 90 µM at JAK1-JH1; > 90000 nM in the assay with IFN-γ; < 10 µM on TYK2 [1]; > 90000 nM in the assay with IL-2; < 10 µM at TYK2 [2]. The IC50 against JAK3-JH1 and against TYK2-JH1 was > 90 µM in each case.
As for `Cc1cc(Nc2cc3c(cn2)c(=O)[nH]n3-c2ccc(Cl)cc2)nc(C)n1` [Compound I-65, 1-(4-chlorophenyl)-6-((2,6-dimethylpyrimidin-4-yl)amino)-1,2-dihydro-3H-pyrazolo[4,3-c]pyridin-3-one], the IC50 on JAK2-JH1 was > 90 µM; at JAK1-JH1, > 90 µM; with IFN-γ, > 90000 nM; on TYK2 [1] it was > 90 µM; in the assay with IL-2 it was > 90000 nM; at TYK2 [2], < 10 µM. Further, the IC50 at JAK3-JH1 and at TYK2-JH1 was > 90 µM each time.
For the compound `Cc1cc(Nc2cc3c(cn2)c(=O)[nH]n3-c2ccc(OC(F)F)cc2)nc(C)n1` [Compound I-72, 1-(4-(difluoromethoxy)phenyl)-6-((2,6-dimethylpyrimidin-4-yl)amino)-1,2-dihydro-3H-pyrazolo[4,3-c]pyridin-3-one], the IC50 on JAK2-JH1 is > 90 µM; on JAK1-JH1 it was > 90 µM; in the assay with IFN-γ, > 90000 nM; on TYK2 [1], < 10 µM; in the assay with IL-2, > 90000 nM; on TYK2 [2] it was < 10 µM. The IC50 against JAK3-JH1 and on TYK2-JH1 was > 90 µM in each case.
